Source: a compilation of properties of binary mixtures (doi:10.1021/je3004904)

Experiment: xn = mol fraction of the nth substance listed
Details: 101 kPa

[Cl][Al]([Cl])[Cl] + CCCC[n+]1ccn(C)c1.[Cl-]
Details | electrical conductivity [S/m] | viscosity [mPa·s]
293.15 K, x1 = 0.5 | – | 41.63
293.15 K, x1 = 0.5238 | – | 38.28
293.15 K, x1 = 0.545 | – | 35.03
293.15 K, x1 = 0.5454 | – | 34.99
293.15 K, x1 = 0.5653 | – | 32.26
293.15 K, x1 = 0.583 | – | 30.37
293.15 K, x1 = 0.5834 | – | 30.34
293.15 K, x1 = 0.6001 | – | 28.34
293.15 K, x1 = 0.615 | – | 26.91
293.15 K, x1 = 0.6154 | – | 26.89
293.15 K, x1 = 0.6296 | – | 25.31
293.15 K, x1 = 0.6429 | – | 24.35
293.15 K, x1 = 0.6551 | – | 23.44
293.15 K, x1 = 0.6667 | – | 22.54
298.15 K, x1 = 0.583 | 0.947 | 25.24
298.15 K, x1 = 0.615 | 0.931 | 22.59
298.15 K, x1 = 0.643 | 0.919 | 20.62
298.15 K, x1 = 0.667 | 0.912 | 19.42
303.15 K, x1 = 0.5 | – | 28.33
303.15 K, x1 = 0.545 | 1.14 | 24.35
303.15 K, x1 = 0.5454 | – | 24.32
303.15 K, x1 = 0.583 | 1.1 | 21.38
303.15 K, x1 = 0.5834 | – | 21.36
303.15 K, x1 = 0.6001 | – | 20.2
303.15 K, x1 = 0.615 | 1.07 | 19.34
303.15 K, x1 = 0.6154 | – | 19.33
303.15 K, x1 = 0.6296 | – | 18.29
303.15 K, x1 = 0.6551 | – | 17.1
303.15 K, x1 = 0.6667 | – | 16.73
308.15 K, x1 = 0.545 | 1.32 | 20.84
308.15 K, x1 = 0.583 | 1.26 | 18.31
308.15 K, x1 = 0.643 | 1.21 | 15.39
308.15 K, x1 = 0.667 | 1.2 | 14.59
313.15 K, x1 = 0.5 | – | 20.76
313.15 K, x1 = 0.5238 | – | 19.48
313.15 K, x1 = 0.545 | 1.51 | 18.1
313.15 K, x1 = 0.5653 | – | 16.92
313.15 K, x1 = 0.583 | 1.44 | 16.03
313.15 K, x1 = 0.5834 | – | 16.01
313.15 K, x1 = 0.6001 | – | 15.28
313.15 K, x1 = 0.615 | 1.39 | 14.61
313.15 K, x1 = 0.6296 | – | 13.96
313.15 K, x1 = 0.6429 | – | 13.53
313.15 K, x1 = 0.643 | 1.36 | 13.54
313.15 K, x1 = 0.6551 | – | 13.12
313.15 K, x1 = 0.6667 | – | 12.87
313.15 K, x1 = 0.667 | 1.34 | 12.87
318.15 K, x1 = 0.545 | 1.71 | 15.92
318.15 K, x1 = 0.583 | 1.63 | 14.15
318.15 K, x1 = 0.615 | 1.57 | 12.78
318.15 K, x1 = 0.643 | 1.52 | 12.04
323.15 K, x1 = 0.5238 | – | 15.16
323.15 K, x1 = 0.545 | 1.93 | 14.15
323.15 K, x1 = 0.5653 | – | 13.29
323.15 K, x1 = 0.583 | 1.83 | 12.61
323.15 K, x1 = 0.5834 | – | 12.6
323.15 K, x1 = 0.6001 | – | 12.09
323.15 K, x1 = 0.615 | 1.76 | 11.56
323.15 K, x1 = 0.6154 | – | 11.55
323.15 K, x1 = 0.6429 | – | 10.78
323.15 K, x1 = 0.643 | 1.69 | 10.8
323.15 K, x1 = 0.6551 | – | 10.48
323.15 K, x1 = 0.6667 | – | 10.17
323.15 K, x1 = 0.667 | 1.66 | 10.17
328.15 K, x1 = 0.545 | 2.15 | 12.7
328.15 K, x1 = 0.583 | 2.04 | 11.34
328.15 K, x1 = 0.615 | 1.95 | 10.45
328.15 K, x1 = 0.667 | 1.83 | 9.05
333.15 K, x1 = 0.5 | – | 12.95
333.15 K, x1 = 0.545 | 2.39 | 11.49
333.15 K, x1 = 0.5454 | – | 11.47
333.15 K, x1 = 0.5653 | – | 10.83
333.15 K, x1 = 0.583 | 2.26 | 10.29
333.15 K, x1 = 0.5834 | – | 10.28
333.15 K, x1 = 0.6154 | – | 9.49
333.15 K, x1 = 0.6429 | – | 8.88
333.15 K, x1 = 0.643 | 2.07 | 8.88
333.15 K, x1 = 0.6551 | – | 8.63
333.15 K, x1 = 0.6667 | – | 8.23
333.15 K, x1 = 0.667 | 2.01 | 8.23
338.15 K, x1 = 0.545 | 2.63 | 10.48
338.15 K, x1 = 0.583 | 2.49 | 9.4
338.15 K, x1 = 0.615 | 2.38 | 8.69
338.15 K, x1 = 0.643 | 2.28 | 8.14
338.15 K, x1 = 0.667 | 2.2 | 7.43
343.15 K, x1 = 0.5 | – | 10.78
343.15 K, x1 = 0.5238 | – | 10.26
343.15 K, x1 = 0.545 | 2.88 | 9.63
343.15 K, x1 = 0.5653 | – | 9.09
343.15 K, x1 = 0.583 | 2.73 | 8.64
343.15 K, x1 = 0.6001 | – | 8.34
343.15 K, x1 = 0.615 | 2.6 | 8.01
343.15 K, x1 = 0.6154 | – | 8.01
343.15 K, x1 = 0.6296 | – | 7.73
343.15 K, x1 = 0.643 | 2.5 | 7.5
343.15 K, x1 = 0.6551 | – | 7.209
343.15 K, x1 = 0.6667 | – | 6.824
343.15 K, x1 = 0.667 | 2.4 | 6.824

Cn1cc[nH+]c1.[Cl-] + Cl[Al](Cl)Cl
Details | electrical conductivity, x2 = 0.643 [S/m] | electrical conductivity, x2 = 0.667 [S/m] | viscosity, x2 = 0.643 [mPa·s] | viscosity, x2 = 0.667 [mPa·s]
293.15 K | – | – | 78.3 | 50.8
298.15 K | 0.456 | 0.601 | 59.41 | 40.23
303.15 K | 0.553 | – | 46.88 | –
308.15 K | 0.661 | 0.827 | 38.17 | 27.36
313.15 K | – | 0.961 | – | 23.28
318.15 K | 0.909 | 1.1 | 27.17 | 20.13
323.15 K | 1.05 | 1.25 | 23.58 | 17.66
328.15 K | 1.2 | 1.4 | 20.75 | 15.67
333.15 K | 1.36 | 1.56 | 18.5 | 14.06
338.15 K | 1.53 | 1.74 | 16.67 | 12.72
343.15 K | 1.7 | 1.92 | 15.15 | 11.61
